The subject of the data set is IL8 secretion from TNFα induced Caco-2 cells. The data set is described as follows: IL8 secretion from TNFα induced Caco-2 cells (HTRF). The class given is cell-based, Human. The conditions noted are these: 24 h incubation; combinations: CBD 30 μM with NaB or NaP 20 mM. How it is done:
Cell lines were cultured according to standard mammalian tissue culture protocols and sterile technique. Human colon epithelial cells, Caco-2, were cultured in high glucose Dulbecco's Modified Eagle Medium (DMEM). Human monocytes THP-1 cells line were cultured in RPMI medium 1640. Both media were supplemented with 10% fetal bovine serum (FBS), 2 mM 1-glutamine and 0.1% penicillin-streptomycin solution in a humidified atmosphere (5% CO2, 95% air, 37° C.) in a 75 cm2 cell culture treated flask (Eppendorf). All the media and supplements were obtained from Biological Industries.
Interleukin 8 (IL 8) detection and quantification was performed with Homogeneous Time-Resolved fluorescence (HTRF).
Caco-2 cells were seeded in a 96 micro well delta surface plates (Eppendorf) at a starting confluence of 2×10^4 cells/well and were incubated for 21 days. Growth medium was replaced every 2-3 days.
After 22 days, the medium was replaced with medium containing both TNFα (as a damage inducer) and the tested sample (as treatment) using specific media containing 5% FBS. After 24 hours incubation, the supernatant was collected and stored for cytokine analysis. The supernatant was diluted up to 5 times in working media to avoid the hook effect.
HTRF assays were performed in white 96-well plate (CisBio Bioassays) with a total working volume of 20 μL. All HTRF reagents were purchased from CisBio Bioassays and reconstituted according to the manufacturer protocols. For each assay 16 μL of diluted supernatants samples were incubate with 4 μL mixed solution containing donor and acceptor antibodies.
After 2 h incubation HTRF signals were measured using SPARK multimode microplate reader with an excitation filter at 320 nm and fluorescence wavelength measurement at 620 and 665 nm, an integration delay of 60 μs and an integration time of 400 μs. Results were analyzed with a two-wavelength signal ratio: [intensity (665 nm)/intensity (620 nm)]*104. Calculation and analysis of cytokines release was performed according to the manufacturer protocols and using the 4PL 1/Y2 formula in GraphPad Prism software.
As to `CCC(=O)[O-].[Na+]` [NaP, sodium propionate], the “IL8 secretion from TNFα induced Caco2 cells (result in words)” value is “mild reduction of IL8 secretion”. For `C=C(C)[C@@H]1CCC(C)=C[C@H]1c1c(O)cc(CCCCC)cc1O` [CBD, 2-[(6R)-3-Methyl-6-prop-1-en-2-yl-1cyclohex-2-envyl]-5pentylbenzene-1,3-diol, reference compound] the value was “didn't exhibit any significant effect”. To `CCCC(=O)[O-].[Na+]` [NaB, sodium butyrate] belongs “didn't exhibit any significant effect”.

(Values after patent publication US20240058364A1, “A COMPOSITION FOR USE IN THE TREATMENT OF RECTAL AND/OR INTESTINAL INFLAMMATION” (CANNAMORE BIOTECHS LTD., priority 2020, published 2024).)
